Reference: US20240272164A1, “METHODS FOR CLASSIFYING TUMORS AND USES THEREFOR” (THE UNIVERSITY OF QUEENSLAND, priority 2015, published 2024)
“Also recorded” adds a separate entry of the source.

Tests used:
Type in all cases: cell-based
breast cancer cell lines = test system: breast cancer cell lines
Source text: Dyngo4a, a small molecule inhibitor of dynamin, was used to block dynamin-mediated endocytosis (Mccluskey et al., 2013) and added into the immune-dependent cytotoxicity assays. […] However, the specific cell death of BT474 cells was not enhanced following treatment with Dyngo4a (FIG. 4C).

A431 cells = experiment: EGF-Alexa488 uptake and clathrin localisation, confocal and 3D-SIM super-resolution microscopy; settings: for Internalization of EGF-Alexa488: 30 min drug, EGF-Alexa488 last five minutes, confocal, FIG. 7A-C; for Clathrin recruitment to the plasma membrane: 3D-SIM volume projections, FIG. 7G-I; for Effect on HER1 (EGFR) at the plasma membrane: Pitstop-2 30 μM or chlorpromazine 18 μM, 30 min
Experimental: To discuss the experiments in more detail, A431 cells were incubated in serum-free medium with no drugs (control), or with Pitstop®-2 for 30 min or chlorpromazine for 30 min. During the last five minutes of treatment EGF-Alexa488 was added to monitor CME, after which cells were fixed and imaged (FIG. 7A-C).
Volume projections of a small area of the cell periphery were used to examine the recruitment of clathrin and EGF-positive sites to the cell periphery (FIG. 7G-I). The angle of 3D projection was chosen to show the upper surface of the cell plasma membrane. Points of co-localisation between EGF-Alexa^488 and Alexa^594-conjugated antibodies (which detects clathrin) are rare in 3D-SIM due to the capture of frequency information differences between the 488 and 594 excitation/emission spectra. […] A clathrin punctum was defined as being recruited an HER1-positive site when there was 50 nm or less distance between the clathrin and EGF puncta.
A431 cells were seeded on coverslips in 12-well plates and incubated overnight to reach 80% confluence for super-resolution microscopy based on structured illumination. After a 3 hour-serum starvation the cells were treated with 30 μM of Pitstop®-2 or 18 μM chlorpromazine for 30 min, followed by 5 min uptake with EGF-Alexa488 (100 ng/ml). The uptake of EGF was stopped by washing three times in ice cold PBS. The cells were fixed in 4% paraformaldehyde/phosphate-buffered saline for 30 min and washed three times in phosphate-buffered saline before DAPI staining for 30 min. The coverslips were mounted on slides in Prolong Gold (Life technologies) for confocal analysis or glycerol-based imaging media for three dimensional structured illumination microscopy (3D-SIM). Confocal images were acquired using a Zeiss 510 Meta confocal with a 63 Å˜ objective. Reconstructing the subsequent images after modulating the illumination pattern produces super-resolution images with double the lateral and axial resolution and up to 10 μm into the cell. 3D-SIM images were captured on a Deltavision OMX V3 Imaging System (Applied Precision), EMCCD cameras (CascadeII 512×512 Photometrics) and using a 60×1.4-NA UPlanSApo oil-immersion objective (Olympus) with oil of a refractive index of 1.518. […] Images were computationally reconstructed using Deltavision SoftWorX6.0 Beta 19 software (Applied Precision).

[1] = test system: Cetuximab-sensitive or resistant cell lines; experiment: ADCC in response to Cetuximab with endocytosis inhibitors; settings: either Cetuximab-sensitive or resistant cell lines
Experimental: If only the plasma membrane levels of HER1 determine ADCC response then we would expect that any pharmacological blockade of HER1 internalization would be expected to enhance ADCC. Thus, numerous endocytosis inhibitors were tested to investigate this hypothesis.

SMILES | Toxicity of Dyngo4a (breast cancer cell lines) | Internalization of EGF-Alexa488 (A431 cells; A431 cells) | Clathrin recruitment to the plasma membrane (A431 cells; A431 cells) | Effect on HER1 (EGFR) at the plasma membrane (A431 cells) | Inhibition of CCV (clathrin coated vesicle) formation (A431 cells; A431 cells, confocal and 3D-SIM) | Effect on ADCC in response to Cetuximab [1]
O=C(N/N=C/c1cc(O)c(O)cc1O)c1cc2ccccc2cc1O [Dyngo4a] | non-toxic | – | – | – | – | –
CN(C)CCCN1c2ccccc2Sc2ccc(Cl)cc21 [chlorpromazine] | – | no internalization | does not inhibit clathrin recruitment | clustering and recruitment of HER1 into CCVs; also recorded: abundant EGFR was trapped at the cell membrane | – | –
O=C1NC(=NS(=O)(=O)c2cccc3ccccc23)S/C1=C\c1ccc(Br)cc1 [Pitstop®-2] | – | no internalization | clathrin was not recruited | caused HER1 to be trapped on the plasma membrane | inhibits CCV formation | did not increase ADCC
